Laboratory results: patent US9908899B2 (BIOMARIN PHARMACEUTICAL INC., priority 2011, dated 2018)

Assays:
[1] = target: HDAC2 (Homo sapiens (Human), UniProt Q92769); experiment: HDAC activity inhibition assay, HDAC2; format: biochemical
Experimental: (§1) The HDAC activity inhibition assay was performed as follows to determine the ability of a test compound to inhibit HDAC enzymatic activity. […] Following pre-incubation, Fluor-de-Lys™ substrate (Enzo Life Sciences, Plymouth Meeting, Pa., BML-KI104-0050) was added to a final concentration of 10 μM and plates were further incubated for 30 minutes at room temperature. […] IC50 values were calculated by using a sigmoidal dose-response (variable slope) equation in GraphPad Prism® 5 for Windows (GraphPad Software, La Jolla, Calif.).

[2] = Acid stability determination; format: physicochemical; settings: 100 μM in 0.01 M HCl, 50° C.
Experimental: A 100 μM solution of test compound was prepared by dilution of a 10 mM DMSO stock solution in a 0.01 M solution of HCl in deionized water. Immediately after mixing, an aliquot (100 μL) was sampled and analyzed by HPLC/UV. The area under the compound peak was determined and used as the time zero reference point. The remainder of the acid sample was incubated at 50° C. and samples were taken after 2, 4, and 24 hours of incubation. On a few occasions, samples were taken at 30 rather than 24 hours. These were analyzed by the same HPLC/UV method and the area of the peak corresponding to the test compound was measured. Percent remaining at a given time point was then calculated as the ratio of the area under the peak after incubation to that at time zero times 100. In those cases where a 30 hour time point was recorded, the percent remaining at 24 hours was obtained by interpolation of the percent remaining versus time curve assuming a unimolecular process, i.e. a monoexponential decay. Percent remaining after 24 hours incubation are presented in Tables 2 and 4 below, where A corresponds to more than 60%, B is between 40 and 60%, C covers 20 to 40% and D means less than 20%.

[3] = test system: Frataxin (FXN) mRNA; experiment: Effect of HDAC inhibitors on frataxin (FXN) mRNA expression in Friedreich's ataxia patient primary lymphocytes; format: cell-based, human; settings: Homo sapiens, Lymphocyte; Friedreich's ataxia patient primary lymphocytes, 48 hours; read-out: FXN 2x (concentration required for a 2-fold increase in FXN mRNA)
Experimental: Blood is collected from Friedreich's ataxia patient donors into tubes containing the anti-coagulant EDTA. Primary lymphocytes are isolated using Lymphocyte Separation Medium (MP Biomedicals, Solon, Ohio) following the manufacturer's instructions and including a few modifications made by Repligen. After a final wash in Phosphate Buffered Saline (PBS), the cells are distributed into a 6-well cell culture plate in cell growth medium. The test HDAC inhibitor compound is added to cells in a dose escalating manner (usually concentrations range from 1 to 10 μM) and 0.1% DMSO is added to one well of cells as a no treatment control. Cells are incubated for 48 hours at 37° C. in a CO2 incubator; cell counts are taken using a Countess automated cell counter (Invitrogen, Carlsbad, Calif.). Equivalent numbers of cells for all treatment conditions are pelleted by centrifugation and resuspended in cell lysis buffer. Total RNA is isolated from approximately 1×10^6 primary lymphocytes using a RNeasy Mini Kit (Qiagen, Valencia, Calif.), following the manufacturer's instructions and including an optional on-column DNAse digestion step. The isolation is performed either manually or using the QIAcube (Qiagen, Valencia, Calif.), an instrument that automates much of the isolation procedure. The RNA yield and concentration is determined using a Nanodrop spectrophotometer (Thermo Fisher Scientific, Waltham, Mass.) and depending on the RNA concentration, one of two protocols is used to measure frataxin (FXN) transcript levels. For samples containing at least 15 ng/μL RNA a TaqMan® Probe-based (Applied Biosystems, Carlsbad, Calif.) qRT-PCR method is used, while for samples containing less than 15 ng/μL RNA a SYBR Green qRT-PCR method is used. In the TaqMan® Probe-based method specific primer/probe pairs for FXN and GAPDH are multiplexed in each reaction. In the SYBR Green method FXN and GAPDH are amplified in separate reactions. In both methods each RNA sample is analyzed in triplicate (preferably) or duplicate (minimally) using a one-step qRT-PCR master mix that contains all the components necessary for cDNA synthesis and PCR amplification in a single, continuous reaction. After cycling is complete, MxPro Software (Agilent Technologies, Santa Clara, Calif.) is used to analyze the collected data and determine the relative amount of FXN mRNA compared to a control sample. An adaptive baseline method is used for baseline correction whereby an algorithm automatically selects the appropriate baseline cycles for each well and each dye. An amplification-based threshold is set and the corresponding threshold cycle, or Ct, is obtained for calculating target concentration. The Ct values for each target gene (FXN and GAPDH) for each replicate series are averaged. The amount of FXN (or GAPDH) in the sample is determined as the relative quantity to the calibrator where the calibrator sample is assigned an arbitrary quantity of 1. The following equation is used: Relative quantity to the calibrator=2^−ΔCt where ΔCt=(Ct_gene)unknown−(Ct_gene)calibrator, gene is either FXN or GAPDH, calibrator is a DMSO control sample, and unknown is a HDACi treated sample. The relative quantity of FXN is normalized to cell number and RNA input. Data is reported in Tables 2 and 4 below, where the concentration required for a 2-fold increase in FXN mRNA is reported as A if less than 5 μM, B if between 5 and 10 μM, C if greater than 10 μM.

[4] = target: HDAC3/NcoR2 (Homo sapiens (Human), UniProt O15379); experiment: HDAC activity inhibition assay, HDAC3/NcoR2; format: biochemical
Chain of HDAC3/NcoR2 (O15379 whole entry): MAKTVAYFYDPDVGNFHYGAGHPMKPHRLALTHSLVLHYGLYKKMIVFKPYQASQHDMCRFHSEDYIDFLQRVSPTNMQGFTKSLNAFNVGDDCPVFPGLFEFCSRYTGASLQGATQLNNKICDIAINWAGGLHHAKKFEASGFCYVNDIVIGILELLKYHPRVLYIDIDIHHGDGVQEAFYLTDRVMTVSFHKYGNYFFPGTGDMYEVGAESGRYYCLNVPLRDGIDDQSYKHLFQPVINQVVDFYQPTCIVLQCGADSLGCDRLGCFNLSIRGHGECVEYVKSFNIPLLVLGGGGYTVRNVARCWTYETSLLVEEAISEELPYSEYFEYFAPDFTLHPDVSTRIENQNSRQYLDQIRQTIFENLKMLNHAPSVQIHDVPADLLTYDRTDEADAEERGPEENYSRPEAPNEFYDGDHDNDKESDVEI
Chain of HDAC3/NcoR2 (Q9Y618 395-489 partner): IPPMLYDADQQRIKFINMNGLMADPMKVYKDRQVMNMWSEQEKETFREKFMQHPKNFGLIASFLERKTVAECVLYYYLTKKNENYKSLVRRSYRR
Experimental: as §1

[5] = target: HDAC1 (Homo sapiens (Human), UniProt Q13547); experiment: HDAC activity inhibition assay, HDAC1; format: biochemical
Chain of HDAC1 (Q13547 whole entry): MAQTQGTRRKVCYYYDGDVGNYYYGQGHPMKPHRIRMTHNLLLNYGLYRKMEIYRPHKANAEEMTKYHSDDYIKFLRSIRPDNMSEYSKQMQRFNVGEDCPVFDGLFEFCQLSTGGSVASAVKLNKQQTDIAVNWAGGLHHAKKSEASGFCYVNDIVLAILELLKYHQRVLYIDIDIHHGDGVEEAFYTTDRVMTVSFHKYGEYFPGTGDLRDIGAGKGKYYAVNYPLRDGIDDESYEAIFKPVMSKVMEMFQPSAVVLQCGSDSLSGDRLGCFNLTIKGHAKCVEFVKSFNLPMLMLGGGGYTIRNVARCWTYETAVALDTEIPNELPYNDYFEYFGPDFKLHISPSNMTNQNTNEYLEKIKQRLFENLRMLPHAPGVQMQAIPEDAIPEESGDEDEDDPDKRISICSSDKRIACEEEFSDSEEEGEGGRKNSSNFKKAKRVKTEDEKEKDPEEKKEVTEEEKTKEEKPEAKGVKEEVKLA
Experimental: as §1

[6] = test system: Human Hepatocytes; experiment: Compound stability in hepatocytes; settings: 5 μM
Experimental: To assess the stability and metabolism of RGFP compounds in hepatocytes. This assay was designed to evaluate the metabolism of RGFP compounds, following their incubation with human, monkey, dog and rat hepatocytes by monitoring either parent drug disappearance or metabolite appearance using HPLC.
Procedure: • Turn on the water-bath heater to 37° C. • Take out the KHB buffer and make sure it is at room temp before use • Prepare 2.5 mM concentration of RGFP compound in DMSO stock • Add 10 μL of above DMSO stock to 2490 μL KHB buffer; final concentration of RGFP compound will be 10 μM • Pre-warm 45 ml InVitro HT Medium to 37° C. in a sterile 50 ml conical tube • Add 1.0 mL Torpedo Antibiotic Mix per 45 mL InVitro HT medium • Transfer 13 mL of warm HT medium with Antibiotic Mix into a 15 mL conical tube. • Carefully remove the hepatocyte vials from liquid nitrogen (liquid phase). • Immediately immerse the vial into a 37° C. water bath. Shake gently until the ice melts entirely. […] Loosen the cell pellet by gently swirling the centrifuge tube • Transfer 100 μL of above solution to a different tube and add 900 μL of KHB buffer to count the cells • Determine the total cell count and the number of viable cells using the Trypan Blue exclusion method • Once you obtain the cell count, multiply the number by 10 (attributing to the dilution factor) • Now add required volume of KHB buffer to the tube containing hepatocytes such that the final count will be 2 million cells/mL • Dispense 50 μL of 2 million cells/ml to a 96 well plate and then add 50 μl of DMSO stock to respective wells (such that, the concentration of RGFP compounds is 5 μM and number of cells are 100000 in each well) • Place the plates on a shaker in a 37° C. incubator with 5% CO2 • Separate plates for each time point are advisable (Time points: 0 h, 1 h, 2 h, and 6 h) • After each time point, add 100 μL of quenching solution. • Quenching solution is an acetonitrile solution containing RGFP531 (10 μM) internal standard, 0.1% formic acid and phenylglyoxol (400 μM). The formic acid and phenylglyoxal is used for the identification and quantification of OPD as mentioned above. • Pipette up and down a few times to ensure a complete stop of reaction • Transfer all the solution into a 1.5 ml tube, vortex thoroughly, and centrifuge at 14000 RPM at 4° C. for 5 minutes to precipitate cell debris
Transfer the 150 μL of supernatant to vials for analysis using HPLC

[7] = Brain penetration studies; settings: Table 4; mice; Cmax(brain)/Cmax(plasma)
Experimental: Test compounds were prepared at either 0.5 mg/ml or 5 mg/ml in 30% hydroxypropyl-β-cyclodextrin, 100 mM sodium acetate pH 5.5, 5% DMSO. C57/BL6/J mice were dosed s.c. at 5 mg/kg or 50 mg/kg, or i.v. at 5 mg/kg. Animals were euthanized at pre-dose, 5, 15, 30 min, 1, 2 and 4 hours post-dose and plasma and brain obtained. Three animals per dose per time points were used. The levels of compound in the plasma and brain were determined by standard LC/MS/MS methods. Brain/plasma ratio (BPR) was calculated as the ratio of the Cmax(brain)/Cmax(plasma).

[8] = Table 1, 2 hours pre-incubation

Chain of HDAC2 (Q92769 whole entry): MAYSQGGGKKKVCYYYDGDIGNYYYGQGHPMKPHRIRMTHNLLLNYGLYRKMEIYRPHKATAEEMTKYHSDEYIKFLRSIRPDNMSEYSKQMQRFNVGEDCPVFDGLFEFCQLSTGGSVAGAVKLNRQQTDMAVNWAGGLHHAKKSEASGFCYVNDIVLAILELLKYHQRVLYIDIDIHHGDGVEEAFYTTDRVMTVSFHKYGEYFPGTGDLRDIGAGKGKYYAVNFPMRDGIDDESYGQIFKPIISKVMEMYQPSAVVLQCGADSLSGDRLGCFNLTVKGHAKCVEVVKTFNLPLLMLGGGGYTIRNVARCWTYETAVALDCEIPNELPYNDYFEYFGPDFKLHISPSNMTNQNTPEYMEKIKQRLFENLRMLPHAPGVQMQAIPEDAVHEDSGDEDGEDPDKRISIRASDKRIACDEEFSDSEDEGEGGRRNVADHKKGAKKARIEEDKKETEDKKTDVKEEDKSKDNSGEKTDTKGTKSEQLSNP

IC50 [1, 8]	acid stability (percent remaining after 24 hours incubation) [2]	IC50 [4, 8]	IC50 [5, 8]	IC50 ([1]; Table 4)	IC50 ([4]; Table 4)	IC50 ([5]; Table 4)	% left 6 h Hum [6]	Structure (SMILES)	EC (2-fold FXN mRNA) [3]	BPR [7]
< 1000 nM	B (B is between 40 and 60%)	< 1000 nM	< 1000 nM	–	–	–	–	Nc1ccccc1NC(=O)c1ccc(C=C2CCN(Cc3cccnc3)CC2)cc1 [F2]	< 5 µM	–
< 1000 nM	B (B is between 40 and 60%)	< 1000 nM	< 1000 nM	–	–	–	–	Nc1ccccc1NC(=O)c1ccc(C=C2CN(Cc3ccc4cc[nH]c4c3)C2)cc1 [F3]	< 5 µM	–
–	B (B is between 40 and 60%)	< 1000 nM	< 1000 nM	–	–	–	–	Nc1ccccc1NC(=O)c1ccc(CC2CN(Cc3ccc4cc[nH]c4c3)C2)cc1 [F4]	< 5 µM	–
< 1000 nM	–	< 1000 nM	< 1000 nM	< 1000 nM	< 1000 nM	< 1000 nM	C (30%>C>10%)	Nc1ccccc1NC(=O)c1ccc(C=C2CCN(Cc3cccnc3)CC2)c(Cl)c1 [F7]	–	–
–	–	–	–	–	< 1000 nM	< 1000 nM	IA (IA<10%)	Nc1ccccc1NC(=O)c1ccc(C=C2COC2)cc1F [F9]	–	–
–	–	–	–	< 1000 nM	< 1000 nM	< 1000 nM	B (50%>B>30%)	Nc1ccccc1NC(=O)c1ccc(C=C2CCN(CC3CC3)CC2)cc1 [F13]	–	A (A is greater than 1)
–	–	–	–	< 1000 nM	< 1000 nM	< 1000 nM	C (30%>C>10%)	Cc1cccc(CN2CC(=Cc3ccc(C(=O)Nc4ccccc4N)cc3)C2)n1 [F16]	–	–
–	–	–	–	< 1000 nM	< 1000 nM	< 1000 nM	C (30%>C>10%)	Nc1ccccc1NC(=O)c1ccc(C=C2CN(Cc3ccccc3)C2)cc1 [F17]	–	–
–	–	–	–	< 1000 nM	< 1000 nM	< 1000 nM	C (30%>C>10%)	Nc1ccccc1NC(=O)c1ccc(C=C2CN(Cc3cccnc3)C2)cc1 [F18]	–	–
–	–	–	–	1000 to 5000 nM	< 1000 nM	< 1000 nM	A (50%<A)	CC(C)(O)CN1CC(=Cc2ccc(C(=O)Nc3ccccc3N)cc2)C1 [F19]	–	–
–	–	–	–	1000 to 5000 nM	< 1000 nM	1000 to 5000 nM	A (50%<A)	Nc1cc(F)ccc1NC(=O)c1ccc(C=C2CN(CC3CC3)C2)cc1 [F20]	–	–

Further lines, the compound ahead of its results:

Structure (SMILES)	IC50 [1, 8]	acid stability (percent remaining after 24 hours incubation) [2]	IC50 [4, 8]	IC50 [5, 8]	IC50 ([1]; Table 4)	IC50 ([4]; Table 4)	IC50 ([5]; Table 4)	% left 6 h Hum [6]	EC (2-fold FXN mRNA) [3]	BPR [7]
Nc1ccccc1NC(=O)/C=C/c1cnn(CCOc2ccccc2)c1 [D3, (E)-N-(2-aminophenyl)-3-(1-(2-phenoxyethyl)-1H-pyrazol-4-yl)acrylamide]	< 1000 nM	A (A corresponds to more than 60%)	< 1000 nM	< 1000 nM	–	–	–	–	5 to 10 µM	–
Nc1ccccc1NC(=O)/C=C/c1cnn(Cc2ccccc2)c1 [D4]	1000 to 5000 nM	A (A corresponds to more than 60%)	< 1000 nM	< 1000 nM	–	–	–	–	> 10 µM	–
Cc1cccc(Cn2cc(/C=C/C(=O)Nc3ccccc3N)cn2)n1 [D6]	1000 to 5000 nM	–	–	1000 to 5000 nM	–	–	–	–	> 10 µM	–
Nc1ccccc1NC(=O)/C=C/c1cnn(CCc2ccccc2)c1 [D7]	1000 to 5000 nM	B (B is between 40 and 60%)	< 1000 nM	< 1000 nM	–	–	–	–	5 to 10 µM	–
Nc1ccccc1NC(=O)/C=C/c1cnn(CCCc2ccccc2)c1 [D8]	< 1000 nM	–	< 1000 nM	< 1000 nM	–	–	–	–	> 10 µM	–
Nc1ccccc1NC(=O)/C=C/c1cnn(CCCCc2ccccc2)c1 [D9]	< 1000 nM	A (A corresponds to more than 60%)	< 1000 nM	< 1000 nM	–	–	–	–	< 5 µM	–
Nc1ccccc1NC(=O)/C=C/c1cnn(CC(F)(F)c2ccccc2)c1 [D10]	1000 to 5000 nM	–	< 1000 nM	< 1000 nM	–	–	–	–	> 10 µM	–
Nc1ccccc1NC(=O)/C=C/c1cnn(CC/C=C/c2ccccc2)c1 [D11]	< 1000 nM	–	< 1000 nM	< 1000 nM	–	–	–	–	5 to 10 µM	–
Nc1ccccc1NC(=O)/C=C/c1cnn(CCOCc2ccccc2)c1 [D14]	< 1000 nM	B (B is between 40 and 60%)	< 1000 nM	< 1000 nM	–	–	–	–	5 to 10 µM	–
CN1C2CCC1CC(=Cc1ccc(C(=O)Nc3ccccc3N)cc1Cl)C2 [F8]	–	–	–	–	< 1000 nM	< 1000 nM	< 1000 nM	–	–	C (C is 0.2 to 0.5)
Nc1ccccc1NC(=O)c1ccc(C=C2CN(CC3CC3)C2)c(Cl)c1 [F10]	–	–	–	–	–	–	–	B (50%>B>30%)	–	A (A is greater than 1)
Nc1ccccc1NC(=O)c1ccc(C=C2COC2)c(Cl)c1 [F11]	–	–	–	–	–	< 1000 nM	< 1000 nM	C (30%>C>10%)	–	A (A is greater than 1)
